Reference: US8933019B2, “Antiviral cell-penetrating peptides” (priority 2008, dated 2015)
Read-outs that look alike come from different tables or passages of the source. Bridge positions count the residues as written; N and C are the ends. Square brackets hold non-standard residues; d marks the D form. Peptide text beside a SMILES is read from it. R8 = C=CCCCCCC[C@@](C)(N)C(=O)O; S5 = C=CCCC[C@](C)(N)C(=O)O

Key:
[1] = tested on: HIV-1 IIIB
Method: (§1) The inhibitory activity of NYAD-201, and related stapled peptides on infection by laboratory-adapted HIV-1 strains was determined as previously described (Jiang et al. J Exp. Med 174:1557-1563, 1991) with minor modifications. Azidothymidine (AZT) was used as a positive control in the infectivity assays. In brief, 1×10^4 MT-2 cells were infected with HIV-1 at 100 TCID50 (50% tissue culture infective dose) (0.01 MOI [multiplicity of infection]) in 200 μl RPMI 1640 medium containing 10% FBS in the presence or absence of peptides at graded concentrations overnight. The culture supernatants were then removed and fresh media containing freshly prepared test peptide were added. On the fourth day post-infection, 100 μl of culture supernatants were collected from each well, mixed with equal volume of 5% Triton X-100 and tested for p24 antigen by ELISA.
(§2) In addition, NYAD-201, NYAD-202 and NYAD-203 were also tested using several laboratory-adapted and primary isolates in MT-2 cells and PBMC (peripheral blood mononuclear cells), respectively.

[2] = Cytotoxicity, XTT method, MT-2 cells; type: cell-based, human; settings: human, read-out: CC50 (μM) ± SD, cytotoxicity in MT-2 cells
Method: (§3) Cytotoxicity of peptides in MT-2 cells and PBMC was measured by the XTT [(sodium 3′-(1-(phenylamino)-carbonyl)-3,4-tetrazolium-bis(4-methoxy-6-nitro) bezenesulfonic acid hydrate)] method as previously described (Jiang et al., 2004). Briefly, for MT-2 cells, 100 μl of a peptide at graded concentrations was added to an equal volume of cells (1×10^5 cells/ml) in 96-well plates followed by incubation at 37° C. for 4 days, which ran parallel to the neutralization assay in MT-2 (except medium was added instead of virus). In the case of PBMC, 5×10^5 cells/ml were used and the cytotoxicity was measured after 7 days. After addition of XTT (PolySciences, Inc.), the soluble intracellular formazan was quantitated colorimetrically at 450 nm 4 hr later with a reference at 620 nm. The percent of cytotoxicity and the CC50 values were calculated as above (Table 2 and Table 3).

[3] = tested on: HIV-1 AZT-R; settings: read-out: IC50 (μM ± SD), HIV-1 AZT-R; RT-resistant isolate, subtype B, MT-2, coreceptor X4
Method: as §1, §2

[4] = Cytotoxicity, XTT method, PBMC; type: cell-based; settings: human
Method: as §3

[5] = tested on: Jurkat cells; assay: Cytotoxicity, LDH leakage, Jurkat cells; type: cell-based; settings: 30 min, 2 hr and 4 hr of exposure
Method: Cytotoxicity was also evaluated in Jurkat cells using a Promega LDH leakage detection kit. Jurkat cells were plated at 10^4 cells/well in a volume of 200 μl. The test was performed after 30 min, 2 hr and 4 hr of exposure to the NYAD-201, NYAD-202 and NYAD-203 compounds.

[6] = tested on: HIV-1 IIIB; assay: Release and infectivity of HIV-1 virus released from infected MT-2 cells after treatment; type: cell-based; settings: 500 nM, normalized for p24, TCID50
Method: On the fourth day post-infection, the supernatants were collected and filtered with a 0.45 μm PVDF membrane. One aliquot of the supernatants from each sample was mixed 1:1 with a solution of 5% Triton X-100 for p24 quantification, and stored at 4° C., another aliquot was immediately frozen at −80° C. and used to compare the infectivity of the viral particles released by NYAD-201 and NYAD-202 treated cells to the viral particles released by untreated cells. The protein p24 was first quantified by sandwich-ELISA, then the viral samples were normalized for the p24 content and titered to calculate the TCID50. MT-2 cells were infected with a two fold dilutions of virus from NYAD-201 and NYAD-202 treated and untreated cells. […] On the fourth day post infection supernatants were collected for p24 quantification by sandwich-ELISA and the TCID50 was calculated by the Spearman-Karber statistical method. […]
For these reasons, not only the quantity but also the quality of the viral particles released in the supernatant was evaluated. First, the p24/viral particles released in the supernatant following NYAD-201 and NYAD-202 treatment were quantified, then starting with the same amount of p24 per sample, the viruses released in the supernatant were titered. The TCID50 was calculated and expressed as percentage infectivity with respect to the untreated positive control. […]

[7] = read-out: IC50 (μM) ± SD, antiviral activity against HIV-1 IIIB, MT-2 cells, p24 production, fourth day post-infection

| SMILES | IC50 [1, 7] [µM] | CC50 at 4 days [2] [µM] | further results |
| --- | --- | --- | --- |
| CSCC[C@@H]1NC(=O)[C@H](Cc2c[nH]c3ccccc23)NC(=O)[C@@](C)(NC(=O)[C@H](CCCCN)NC(=O)[C@@H](NC(=O)[C@H](C)NC(=O)[C@H](CCC(N)=O)NC(=O)[C@H](C)N)C(C)C)CCCC=CCCC[C@@](C)(C(=O)N[C@H](C(=O)N[C@@H](CC(C)C)C(=O)N[C@@H](CCCCN)C(=O)N[C@H](C(=O)N[C@@H](C)C(=O)N[C@@H](CCC(=O)O)C(N)=O)C(C)C)[C@@H](C)O)NC(=O)[C@H](CCC(=O)O)NC1=O [NYAD-220, AQAVKXWMEXTLKVAE] (H-AQAVK[S5]WME[S5]TLKVAE-NH2; staple 6-10) | > 52.7 | > 105 | – |
| CSCC[C@@H]1NC(=O)[C@H](Cc2c[nH]c3ccccc23)NC(=O)[C@](C)(NC(=O)[C@H](CCCCN)NC(=O)[C@@H](NC(=O)[C@H](C)NC(=O)[C@H](CCC(N)=O)NC(=O)[C@H](C)N)C(C)C)CCCCCCC=CCCC[C@@](C)(C(=O)N[C@H](C(=O)N[C@@H](C)C(N)=O)C(C)C)NC(=O)[C@H](CC(C)C)NC(=O)[C@H]([C@@H](C)O)NC(=O)[C@H](CCC(=O)O)NC(=O)[C@H]([C@@H](C)O)NC1=O [NYAD-221, AQAVKZWMTETLXVA] (H-AQAVK[R8]WMTETL[S5]VA-NH2; staple 6-13) | 7.97 ± 1.03 | > 140 | – |
| CC(C)C[C@@H]1NC(=O)[C@H]([C@@H](C)O)NC(=O)[C@H](CCC(=O)O)NC(=O)[C@H]([C@@H](C)O)NC(=O)[C@H](C)NC(=O)[C@H](Cc2c[nH]c3ccccc23)NC(=O)[C@](C)(NC(=O)[C@H](CCCCN)NC(=O)[C@H](Cc2c[nH]c3ccccc23)NC(=O)[C@H](C)NC(=O)[C@H](CCC(N)=O)NC(=O)[C@H](C)N)CCCCCCC=CCCC[C@@](C)(C(=O)N[C@H](C(=O)N[C@@H](C)C(=O)N[C@@H](CC(N)=O)C(N)=O)C(C)C)NC1=O [NYAD-222, AQAWKZWATETLXVAN] (H-AQAWK[R8]WATETL[S5]VAN-NH2; staple 6-13) | 9.3 ± 1.6 | > 130 | – |
| CSCC[C@@H]1NC(=O)[C@H](CCCCN)NC(=O)[C@@](C)(NC(=O)[C@H](Cc2c[nH]c3ccccc23)NC(=O)[C@@H](NC(=O)[C@H](CC(C)C)NC(=O)[C@H](CCC(N)=O)NC(=O)[C@@H](N)CCC(=O)O)C(C)C)CCCC=CCCC[C@@](C)(C(=O)N[C@@H](C)C(=O)N[C@@H](CC(C)C)C(=O)N[C@@H](C)C(=O)N[C@H](C(=O)N[C@H](C(N)=O)[C@@H](C)O)C(C)C)NC(=O)[C@H]([C@@H](C)O)NC1=O [NYAD-215, EQLVWXKMTXALAVT, reference compound] (H-EQLVW[S5]KMT[S5]ALAVT-NH2; staple 6-10) | > 56 | > 112 | – |
| CC(C)C[C@H](NC(=O)[C@H](CC(C)C)NC(=O)[C@@H](NC(=O)[C@]1(C)CCCC=CCCC[C@](C)(NC(=O)[C@H](CCCCN)NC(=O)[C@H](Cc2c[nH]c3ccccc23)NC(=O)[C@H](C)NC(=O)[C@H](CCC(N)=O)NC(=O)[C@H](C)N)C(=O)N[C@@H](Cc2c[nH]c3ccccc23)C(=O)N[C@@H](C)C(=O)N[C@@H]([C@@H](C)O)C(=O)N1)[C@@H](C)O)C(=O)N[C@H](C(=O)N[C@@H](C)C(=O)N[C@@H](CCC(=O)O)C(N)=O)C(C)C [NYAD-219, AQAWKXWATXTLLVAE] (H-AQAWK[S5]WAT[S5]TLLVAE-NH2; staple 6-10) | 3.7 ± 0.06 | > 106 | – |
| CC[C@H](C)[C@H](N)C(=O)N[C@@H](C)C(=O)N[C@@H](CCC(N)=O)C(=O)N[C@@H](C)C(=O)N[C@@H](CCCCN)C(=O)N[C@H](C(=O)N[C@@H](CCC(=O)O)C(=O)N[C@@]1(C)CCCC=CCCC[C@@](C)(C(=O)N[C@H](C(=O)N[C@@H](CC(C)C)C(=O)N[C@@H](CC(C)C)C(=O)N[C@H](C(=O)N[C@@H](C)C(=O)N[C@@H](CC(N)=O)C(N)=O)C(C)C)[C@@H](C)O)NC(=O)[C@H]([C@@H](C)O)NC(=O)[C@H](CCSC)NC(=O)[C@H](Cc2c[nH]c3ccccc23)NC1=O)C(C)C [NYAD-223, IAQAKVEXWMTXTLLVAN] (H-IAQAKVE[S5]WMT[S5]TLLVAN-NH2; staple 8-12) | 7.2 ± 1.2 | > 124 | – |
| CSCC[C@@H]1NC(=O)[C@H](Cc2c[nH]c3ccccc23)NC(=O)[C@@](C)(NC(=O)[C@H](CCCCN)NC(=O)[C@@H](NC(=O)[C@H](C)NC(=O)[C@H](CCC(N)=O)NC(=O)[C@H](C)N)C(C)C)CCCC=CCCC[C@@](C)(C(=O)N[C@H](C(=O)N[C@@H](CC(C)C)C(=O)N[C@@H](CC(C)C)C(=O)N[C@H](C(=O)N[C@@H](CCC(=O)O)C(=O)N[C@@H](CC(N)=O)C(=O)N[C@@H](C)C(N)=O)C(C)C)[C@@H](C)O)NC(=O)[C@H]([C@@H](C)O)NC1=O [NYAD-212, AQAVKXWMTXTLLVENA] (H-AQAVK[S5]WMT[S5]TLLVENA-NH2; staple 6-10) | 5.95 ± 0.33 | > 102 | – |
| CSCC[C@H](NC(=O)[C@H](Cc1c[nH]c2ccccc12)NC(=O)[C@H](CC(N)=O)NC(=O)[C@H](CCCCN)NC(=O)[C@@H](NC(=O)[C@H](C)NC(=O)[C@H](CCC(N)=O)NC(=O)[C@H](C)N)C(C)C)C(=O)N[C@H](C(=O)N[C@@]1(C)CCCC=CCCC[C@@](C)(C(=O)N[C@@H](C)C(N)=O)NC(=O)[C@H](CC(C)C)NC(=O)[C@H](CC(C)C)NC(=O)[C@H]([C@@H](C)O)NC1=O)[C@@H](C)O [NYAD-218, AQAVKNWMTXTLLXA] (H-AQAVKNWMT[S5]TLL[S5]A-NH2; staple 10-14) | 4.6 ± 0.4 | 67.3 ± 4.4 | – |
| CSCC[C@@H]1NC(=O)[C@H](Cc2c[nH]c3ccccc23)NC(=O)[C@@](C)(NC(=O)[C@H](CCCCN)NC(=O)[C@@H](NC(=O)[C@H](CCC(=O)O)NC(=O)[C@H](CCC(N)=O)NC(=O)[C@H](C)N)C(C)C)CCCC=CCCC[C@@](C)(C(=O)N[C@H](C(=O)N[C@@H](CC(C)C)C(=O)N[C@@H](CC(C)C)C(=O)N[C@H](C(=O)N[C@@H](C)C(=O)N[C@@H](CCCCN)C(=O)N[C@@H](CCCCN)C(=O)N[C@@H](CCCCN)C(N)=O)C(C)C)[C@@H](C)O)NC(=O)[C@H]([C@@H](C)O)NC1=O [NYAD-203, AQEVKXWMTXTLLVAKKK] (H-AQEVK[S5]WMT[S5]TLLVAKKK-NH2; staple 6-10) | 6.29 ± 0.54 | 13.2 ± 0.5 | IC50 [3]: 11.1 ± 3.82 µM; IC50 ([1]; read-out: IC50 (μM ± SD), HIV-1 IIIB, laboratory strain, subtype B, MT-2, coreceptor X4): 6.29 ± 0.54 µM; CC50 at 7 days [4]: 16 ± 1.47 µM; Cytotoxicity in Jurkat cells (LDH leakage) [5]: more toxic at the two higher doses |
| Cc1c(O)cccc1C(=O)N[C@@H](CSc1ccccc1)[C@H](O)CN1C[C@H]2CCCC[C@H]2C[C@H]1C(=O)NC(C)(C)C [NFV, nelfinavir, reference compound] | – | – | Infectivity of virus produced by treated cells [6]: not infectious or slightly infectious |
| CSCC[C@@H]1NC(=O)[C@H](Cc2c[nH]c3ccccc23)NC(=O)[C@@](C)(NC(=O)[C@H](CCCCN)NC(=O)[C@@H](NC(=O)[C@H](C)NC(=O)[C@H](CCC(N)=O)NC(=O)[C@H](C)N)C(C)C)CCCC=CCCC[C@@](C)(C(=O)N[C@H](C(=O)N[C@@H](CC(C)C)C(=O)N[C@@H](CC(C)C)C(=O)N[C@@H](CCCCN)C(=O)N[C@@H](C)C(=O)N[C@@H](CC(N)=O)C(=O)N[C@@H](C)C(=O)N[C@@H](CCC(=O)O)C(N)=O)[C@@H](C)O)NC(=O)[C@H]([C@@H](C)O)NC1=O [NYAD-214, AQAVKXWMTXTLLKANAE] (H-AQAVK[S5]WMT[S5]TLLKANAE-NH2; staple 6-10) | 17.4 ± 0.9 | > 48 | – |
